# From article PMC9049830 (RSC Advances, 2020)
# Values joined by “and” are separate entries in the source; they are usually repeats but may differ in a detail not shown here. Identical values can stand only once. Marks after values point to notes of the source that are not given here.
# Assays:
# [1] = n-octanol/water and n-octanol/phosphate buffer partition coefficient; format: physicochemical; conditions: for log PpH=5.4: n-octanol/phosphate buffer pH 5.4, 25 °C; for log PpH=7.4: n-octanol/phosphate buffer pH 7.4, 25 °C
# [2] = Thermal stability by TG analysis; format: physicochemical
# [3] = Accumulation in the skin after 24 h permeation; format: in vitro ADME, porcine; conditions: after 24 h skin permeation from ethanolic solution; for Skin accumulation: acceptor fluid pH 7.4, n = 3
# Solubility = format: physicochemical; conditions: for Solubility in water: deionised water, 25 °C; for Solubility in phosphate buffer pH = 5.4: pH 5.4, 25 °C; for Solubility in phosphate buffer pH = 7.4: pH 7.4, 25 °C
# [4] = Skin permeation studies in Franz diffusion cells; format: in vitro ADME, porcine; conditions: after 24 h permeation from ethanolic solution into acceptor phase
# L929 cell lines = conditions: high concentrations; cited from earlier work
# [5] = Britton–Robinson buffer at pH 7.4 as acceptor and donor solution; cited from earlier work
# [6] = known ibuprofen salts; cited from earlier work
# [7] = Solubility in organic solvents by modified Vogel's method; format: physicochemical; conditions: 25 °C
Molecule,log PpH=5.4 [1],log PpH=7.4 [1],"T onset, the onset temperature of the thermal degradation [2] [°C]",Skin accumulation as % applied dose of IBU [3] [%],Skin accumulation [3],Solubility in water (Solubility) [g dm^−3],Solubility in phosphate buffer pH = 5.4 (Solubility) [g dm^−3],Solubility in phosphate buffer pH = 7.4 (Solubility) [g dm^−3],Permeation as % applied dose of IBU [4] [%],Decrease of viability (L929 cell lines) [%],Increase in flux compared to IBU [5],log P [6],Solubility in hexane (in words) [7],logP ([1]; n-octanol/water),Flux [5] [μg cm^−2 h^−1]
"CC(C)Cc1ccc(C(C)C(=O)O)cc1.CCOC(=O)[C@@H](N)C(C)C [[ValOEt][IBU], L-valine ethyl ester ibuprofenate]",2.023 ± 0.001,1.026 and 1.026 ± 0.001,89.5,3.5,412.19 ± 38.45 μg IBU g^−1,5.542 ± 0.007,3.969 ± 0.056,5.206 ± 0.044,7.33,,,,,,
CCOC(=O)[C@@H]1CCCN1 [proline ethyl ester],,,,,,,,,,20,,,,,
"CC(C)Cc1ccc(C(C)C(=O)O)cc1.CCCOC(=O)[C@@H](N)C(C)C [[ValOPr][IBU], L-valine propyl ester ibuprofenate]",2.061 ± 0.001,1.197 ± 0.003,109.5,5.9,726.42 ± 113.37 ^a μg IBU g^−1,4.221 ± 0.033,3.057 ± 0.045,5.367 ± 0.019,13.55,,,,,,
"CC(C)Cc1ccc(C(C)C(=O)[O-])cc1.CCCCCCCCCC[N+](C)(C)CCCCCCCCCC [[N1,1,10,10][IBU]]",,,,,,,,,,,four–five-fold,1.87,,,
"CC(C)Cc1ccc(C(C)C(=O)O)cc1.CCCCOC(=O)[C@@H](N)C(C)C [[ValOBu][IBU], L-valine butyl ester ibuprofenate]",,,119.9,7.0,815.14 ± 58.92 ^b μg IBU g^−1,3.125 ± 0.007,2.371 ± 0.016,3.089 ± 0.015,10.66,,,,,,
CC(C)Cc1ccc(C(C)C(=O)[O-])cc1.CCCCn1cc[n+](C)c1 (stereo not shown) [[BMIm][IBU]],,,,,,,,,,,,1.15,,,
"CC(C)Cc1ccc(C(C)C(=O)O)cc1.CCCCCOC(=O)[C@@H](N)C(C)C [[ValOAm][IBU], L-valine pentyl ester ibuprofenate]",2.421 ± 0.002,1.259 ± 0.001,129.8,,565.60 ± 71.09 ^a μg IBU g^−1,1.798 ± 0.019,1.380 ± 0.007,1.931 ± 0.008,11.79,,,,partly soluble (partly soluble when 33–100 mg of compound dissolved in 1 cm^3),,
"CC(C)Cc1ccc(C(C)C(=O)O)cc1 (racemic) [rac-IBU, 2-(4-isobutylphenyl)-propionic acid, reference compound]",3.192,1.284,189.8,3.1,745.69 ± 61.87 μg IBU g^−1,,,,6.06,,,,,2.415 ± 0.001,0.542
"CC(C)Cc1ccc(C(C)C(=O)[O-])cc1.CCCCCC[N+](CCCCCC)(CCCCCC)CCCCCC [[N6,6,6,6][IBU]]",,,,,,,,,,,four–five-fold,2.47,,,
"CC(C)Cc1ccc(C(C)C(=O)O)cc1.CCCCCCOC(=O)[C@@H](N)C(C)C [[ValOHex][IBU], L-valine hexyl ester ibuprofenate]",2.880 ± 0.011,1.279 and 1.279 ± 0.001,128.9,,612.86 ± 129.33 ^a μg IBU g^−1,1.058 ± 0.002,0.759 ± 0.006,1.233 ± 0.001,9.81,,,,soluble (soluble when more than 100 mg of compound was soluble in 1 cm^3),,
L-valine isopropyl ester ibuprofenate [[ValOiPr][IBU]],2.186 ± 0.001,1.172 ± 0.001,90.2,4.9,630.75 ± 61.87 ^a μg IBU g^−1,,,,12.09,,,,,,
"CC(C)Cc1ccc(C(C)C(=O)[O-])cc1.CCCC[P+](CCCC)(CCCC)CCCC [[P4,4,4,4][IBU]]",,,,,,,,,,,,1.54,,,
